Measured values taken from US10195156B2, “Compounds and compositions for intracellular delivery of agents” (ModernaTX, Inc., priority 2015, dated 2019).
Entries after “also recorded” stand apart in the source; their conditions may differ. Where two headings read alike, the source gives them in different places.

Legend:
[1] = test system: luciferase (Luc) mRNA expression; experiment: Expression of Luc induced by sample formulations, whole-body bioluminescence after intravenous administration; format: in vivo
In short: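 Mice (n=6) dosed intravenously with Luc mRNA nanoparticle formulations at 0.5 mg/kg. Whole-body bioluminescence measured at 3, 6 and 24 h. Standard MC3 formulation and PBS control run alongside.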

[2] = test system: hEPO mRNA expression; experiment: Expression of hEPO in CD-1 mice; format: in vivo; settings: for Lipid/MC3 hEPO CD-1 (mice): hEPO expression relative to MC3, CD-1 mice
Source text: FIG. 12 is a set of graphs illustrating hEPO expression levels in CD-1 mice dosed with compounds of the disclosure, compared to MC3. PBS is used as control. […] In graphs A-C numbers 1-14 refer to compositions containing the following: 1: Compound 73, 2: Compound 80, 3: Compound 70; 4: Compound 81; 5: Compound 69; 6: Compound 82; 7: Compound 83; 8: Compound 62; 9: Compound 84; 10: Compound 85; 11: Compound 86; 12: Compound 87; 13: MC3; 14: PBS.
FIG. 13 is a graph showing hEPO levels (pg/mL) in CD-1 mice up to ˜25 h after administration of a nanoparticle composition containing compounds of the disclosure, compared to a composition containing MC3. Numbers 1-13 refer to compositions containing the following: 1: Compound 73, 2: Compound 80, 3: Compound 70; 4: Compound 81; 5: Compound 69; 6: Compound 82; 7: Compound 83; 8: Compound 62; 9: Compound 84; 10: Compound 85; 11: Compound 86; 12: Compound 87; 13: MC3. […]

[3] = test system: modified luciferase expression; experiment: Expression of Luc in different organs (liver, lung, spleen, femur) 6 hours after intravenous administration; format: in vivo; settings: i.v., 0.5 mpk
Description: The efficacy of the nanoparticle compositions presented in Tables 1, 1a, 17-1, 19-1, 20-1 and 21-1 was further evaluated by measuring the expression of modified luciferase in the liver, lung, spleen, and femur upon administration of a given composition. Formulations were administered intravenously to mice (n=3) at a dosage of 0.5 mpk and bioluminescence measured after 6 hours. The standard MC3 formulation and a PBS control were also tested.

[4] = test system: IP-10; experiment: Cytokine production induced by sample formulations: IP-10; format: in vivo; settings: mice, i.v., 0.5 mpk, 6 hours; for IP-10: in pg/mL (unit assumed)
In short: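 Mice received nanoparticle formulations intravenously at 0.5 mpk, with standard MC3 formulation and PBS as controls. Cytokine concentrations were measured 6 hours after dosing.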

[5] = test system: hEPO mRNA expression; experiment: Expression of hEPO in rats after intravenous administration; format: in vivo; settings: for hEPO (pg/mL) 3 hours / hEPO (pg/mL) 6 hours / hEPO (pg/mL) 24 hours: Table 6, 0.2 mg/kg or 0.5 mg/kg; for Lipid/MC3 hEPO S.D. (rats): hEPO expression relative to MC3, S.D. rats, intravenous
Description: PBS (phosphate buffered saline) is used as control.
Formulations were prepared according to Table 5 and included mRNA encoding hEPO.
[…] After the 48 hour time point, livers and spleens were harvested and frozen.

[6] = Lipid levels in liver and spleen 48 hours after administration; format: in vivo, rats; settings: for concentration at 48 h: Sprague-Dawley, rat, intravenous
In short: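 Rats (n=3 or 6) received lipid nanoparticle formulations intravenously at 0.2 mg/kg or 0.5 mg/kg. Liver and spleen were harvested and frozen 48 h after dosing, and the lipid amount remaining in each tissue was measured and expressed as a fraction of the dose.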

[7] = Table 2, mice, i.v., 0.5 mg/kg, 3 hours
[8] = liver, 48 hours after administration, read-out: Lipid in liver
[9] = spleen, 48 hours after administration, read-out: Lipid in spleen
[10] = liver, 48 hours after administration
[11] = spleen, 48 hours after administration
[12] = Table 17-2, mice, i.v., 0.5 mg/kg
[13] = Table 19-2, mice, i.v., 0.5 mg/kg
[14] = Table 20-2, mice, i.v., 0.5 mg/kg
[15] = Table 21-2, mice, i.v., 0.5 mg/kg

Which results are given for `CCCCCCCCCCCCN(CCCCCCCCCCCC)CCN(CCCCCCCCCCCC)CCN1CCN(CCN(CCCCCCCCCCCC)CCCCCC(=O)OCCCCC)CC1` [Compound 12, Pentyl 6-((2-(4-(2-((2-(didodecylamino)ethyl)(dodecyl)amino)ethyl)piperazin-1-yl)ethyl)(dodecyl)amino)hexanoate]?
Total Flux 3 hours [1, 7]: 1.06E+10; Total Flux 6 hours ([1]; Table 2, mice, i.v., 0.5 mg/kg): 1.38E+10; Total Flux 24 hours ([1]; Table 2, mice, i.v., 0.5 mg/kg): 6.03E+08; Luc expression in mice compared with MC3 (in words) ([1]; Table 7a): significantly lower; hEPO expression in mice compared with MC3 (in words) ([2]; Table 7a, mice): substantially higher; Lipid/MC3 hEPO CD-1 (mice) [2]: 2.3; Total Flux Liver ([3]; Table 3, mice, liver): 1.05E+09; Total Flux Lung ([3]; Table 3, mice): 6.76E+06; Total Flux Spleen ([3]; Table 3, mice): 1.11E+07; IP-10 ([4]; Table 4): 2382; hEPO (pg/mL) 3 hours ([5]; rats, i.v.): 592260 pg/mL; hEPO (pg/mL) 6 hours ([5]; rats, i.v.): 424740 pg/mL; hEPO (pg/mL) 24 hours ([5]; rats, i.v.): 165404 pg/mL; Lipid/MC3 hEPO S.D. (rats) [5]: 0.32; concentration at 48 h [6, 8]: 16800 ng/g; concentration at 48 h [6, 9]: 2320 ng/g; % remaining dose in liver [6, 10]: 23.8%; % remaining dose in spleen [6, 11]: 0.22%

Which results are given for `CCCCCC=CCC=CCCCCCCCCC(CCCCCCCCC=CCC=CCCCCC)OC(=O)CCCN(C)C` (centres unmarked) [MC3, heptatriaconta-6,9,28,31-tetraen-19-yl 4-(dimethylamino)butanoate, reference compound]?
Total Flux 3 hours [1, 7]: 1.63E+10; Total Flux 6 hours ([1]; Table 2, mice, i.v., 0.5 mg/kg): 1.73E+10; Total Flux 24 hours ([1]; Table 2, mice, i.v., 0.5 mg/kg): 1.16E+09; Total Flux 3 hours ([1]; Table 17-2, mice, i.v., 0.5 mg/kg, 3 hours): 1.63E+10; Total Flux 6 hours [1, 12]: 2.13E+10; Total Flux 24 hours [1, 12]: 1.01E+09; Total Flux 3 hours ([1]; Table 19-2, mice, i.v., 0.5 mg/kg, 3 hours): 1.53E+10; Total Flux 6 hours [1, 13]: 1.73E+10; Total Flux 24 hours [1, 13]: 1.13E+09; Total Flux 3 hours ([1]; Table 20-2, mice, i.v., 0.5 mg/kg, 3 hours): 1.73E+10; Total Flux 6 hours [1, 14]: 1.94E+10; Total Flux 24 hours [1, 14]: 8.48E+08; Total Flux 3 hours ([1]; Table 21-2, mice, i.v., 0.5 mg/kg, 3 hours): 1.69E+10; Total Flux 6 hours [1, 15]: 2.87E+10; Total Flux 24 hours [1, 15]: 2.23E+10; total flux after 3 hours, rank within the named table (in words) ([1]; mice, i.v., 0.5 mg/kg, 3 hours): highest after 3 hours; total flux / Luc expression, rank within the named table (in words) ([1]; mice, i.v., 0.5 mg/kg, each time point): highest total flux; also recorded: highest luciferase expression; Lipid/MC3 hEPO CD-1 (mice) [2]: 1; Total Flux Femur ([3]; Table 3, mice): 3.08E+06; Total Flux Liver ([3]; Table 3, mice, liver): 2.31E+09; Total Flux Lung ([3]; Table 3, mice): 8.61E+06; Total Flux Spleen ([3]; Table 3, mice): 1.95E+07; Total Flux Femur ([3]; Table 17-3, mice): 6.03E+06; Total Flux Liver ([3]; Table 17-3, mice, liver): 2.75E+09; Total Flux Lung ([3]; Table 17-3, mice): 7.25E+06; Total Flux Spleen ([3]; Table 17-3, mice): 2.62E+07; Total Flux Liver ([3]; Table 19-3, mice, liver): 2.39E+09; Total Flux Lung ([3]; Table 19-3, mice): 5.83E+06; Total Flux Spleen ([3]; Table 19-3, mice): 2.45E+07; Total Flux Femur ([3]; Table 20-3, mice): 2.60E+06; Total Flux Liver ([3]; Table 20-3, mice, liver): 2.48E+09; Total Flux Lung ([3]; Table 20-3, mice): 1.28E+07; Total Flux Spleen ([3]; Table 20-3, mice): 2.85E+07; Total Flux Liver ([3]; Table 21-3, mice, liver): 3.05E+09; Total Flux Lung ([3]; Table 21-3, mice): 6.60E+06; Total Flux Spleen ([3]; Table 21-3, mice): 4.73E+07; total flux in organs, rank or organ comparison (in words) ([3]; mice, each organ or overall, 0.5 mg/kg): highest total flux; also recorded: highest expression in each organ; total flux in the liver, rank within the named table (in words) ([3]; mice, liver): highest; IP-10 ([4]; Table 4): 438; IP-10 ([4]; Table 17-4): 500; IP-10 ([4]; Table 19-4): 323.9; IP-10 ([4]; Table 20-4, formula (20-I)): 499.1; IP-10 induction, rank or comparison with IL-6 (in words) [4]: highest IL-6 and IP-10 levels; hEPO (pg/mL) 3 hours ([5]; rats, i.v.): 1407947 pg/mL; hEPO (pg/mL) 6 hours ([5]; rats, i.v.): 1036013 pg/mL; hEPO (pg/mL) 24 hours ([5]; rats, i.v.): 436243 pg/mL; AUC (0.1 mpk) ([5]; hEPO expression in S.D. rats, 0.1 mpk): 1.62E+06; AUC (1 mpk) ([5]; hEPO expression in S.D. rats, 1 mpk): 1.17E+08; Lipid/MC3 hEPO S.D. (rats) [5]: 1; hEPO expression in rats, comparison (in words) ([5]; rats, i.v., 0.2 or 0.5 mg/kg, Tables 6, 7a): highest hEPO expression at each time point; concentration at 48 h [6, 8]: 21800 ng/g; concentration at 48 h [6, 9]: 2780 ng/g; % remaining dose in liver [6, 10]: 51%; dose remaining in the liver after 48 hours [6, 10]: approximately 60%; % dose remainng Rat liver (48 h) ([6]; rat liver, 48 h): 43.11%; % remaining dose in spleen [6, 11]: 0.44%
